Data as given in US11541028B2, “Peptide pharmaceuticals for treatment of NASH and other disorders” (Mederis Diabetes LLC, priority 2018, dated 2023).
Where two headings read alike, the source gives them in different places. Bridge positions count the residues as written; N and C are the ends. Square brackets hold non-standard residues; d marks the D form. Peptide text beside a SMILES is read from it. * marks the point of attachment. Melibiouronoyl(1β-O-dodecyl) = CCCCCCCCCCCCO[C@@H]1O[C@H](CO[C@H]2O[C@H](C(=O)*)[C@H](O)[C@H](O)[C@H]2O)[C@@H](O)[C@H](O)[C@H]1O; βDGlcA(1-OC18H37) = CCCCCCCCCCCCCCCCCCO[C@@H]1O[C@H](C(=O)*)[C@@H](O)[C@H](O)[C@H]1O; Bip = N[C@@H](Cc1ccc(-c2ccccc2)cc1)C(=O)O; αMeF = C[C@](N)(Cc1ccccc1)C(=O)O; Aib = CC(C)(N)C(=O)O

Legend:
human glucagon receptor = target: T1, human glucagon receptor (Homo sapiens, UniProt P47871); assay: DiscoveRx LeadHunter cellular assay, cAMP stimulation, glucagon receptor in CHO cells; assay type: cell-based
T1 construct: host or cells: CHO cells
Protocol: (§1) A further series of cellular assays was carried out with standard cellular assays (DiscoveRx, LeadHunter assays) using readout of cAMP stimulation or arrestin activation. Compounds were weighed precisely in an amount of about 1 mg and shipped to DiscoveRx for dilution and assay.

human GLP-1 receptor = target: T2, human GLP-1 receptor (Homo sapiens, UniProt P43220); assay: DiscoveRx LeadHunter cellular assay, cAMP stimulation, GLP-1 receptor in CHO cells; assay type: cell-based; details: human GLP-1 receptor in CHO cells (DiscoveRx); read-out: EC50 cAMP GLP-1 R
T2 construct: host or cells: CHO cells
T2 sequence (P43220 24-463): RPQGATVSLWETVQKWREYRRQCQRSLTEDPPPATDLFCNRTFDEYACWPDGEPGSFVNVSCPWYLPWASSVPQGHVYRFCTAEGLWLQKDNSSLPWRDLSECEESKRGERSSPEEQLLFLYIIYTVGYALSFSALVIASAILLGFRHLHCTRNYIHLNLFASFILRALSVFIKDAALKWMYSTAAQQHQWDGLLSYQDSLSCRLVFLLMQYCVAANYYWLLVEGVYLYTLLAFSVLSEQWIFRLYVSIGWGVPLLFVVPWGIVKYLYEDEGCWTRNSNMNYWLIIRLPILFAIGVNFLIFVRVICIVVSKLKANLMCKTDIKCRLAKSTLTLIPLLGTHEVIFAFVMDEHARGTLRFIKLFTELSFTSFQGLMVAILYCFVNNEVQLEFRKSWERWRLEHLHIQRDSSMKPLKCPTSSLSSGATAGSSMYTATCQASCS
Protocol: as §1

T1 sequence (P47871 26-477): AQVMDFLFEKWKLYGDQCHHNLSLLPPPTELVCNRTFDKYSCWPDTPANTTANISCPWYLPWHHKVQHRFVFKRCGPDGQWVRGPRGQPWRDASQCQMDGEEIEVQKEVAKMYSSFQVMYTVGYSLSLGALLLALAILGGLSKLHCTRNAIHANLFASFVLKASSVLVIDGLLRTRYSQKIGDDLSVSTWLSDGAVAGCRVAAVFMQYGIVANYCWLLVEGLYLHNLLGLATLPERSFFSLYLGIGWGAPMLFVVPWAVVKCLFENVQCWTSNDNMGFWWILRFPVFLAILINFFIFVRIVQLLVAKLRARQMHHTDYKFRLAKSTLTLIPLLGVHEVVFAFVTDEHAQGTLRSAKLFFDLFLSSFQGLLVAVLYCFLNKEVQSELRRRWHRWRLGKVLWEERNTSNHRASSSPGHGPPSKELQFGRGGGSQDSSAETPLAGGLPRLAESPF

Row | Structure (SMILES) | EC50 (human glucagon receptor; read-out: EC50 cAMP Glucagon R, human glucagon receptor in CHO cells (DiscoveRx)) [nM] | EC50 (human GLP-1 receptor) [nM] | EC50 (human glucagon receptor) [nM]
1 | CCCCCCCCCCCCCCCCCCO[C@@H]1O[C@H](C(=O)NCCCC[C@H](NC(=O)[C@H](Cc2ccc(-c3ccccc3)cc2)NC(=O)[C@H](CC(=O)O)NC(=O)[C@H](CO)NC(=O)[C@@H](NC(=O)[C@](C)(Cc2ccccc2)NC(=O)[C@@H](NC(=O)CNC(=O)[C@H](CCC(N)=O)NC(=O)C(C)(C)NC(=O)[C@@H](N)Cc2c[nH]cn2)[C@@H](C)O)[C@@H](C)O)C(N)=O)[C@@H](O)[C@H](O)[C@H]1O [EU-A757] (H-H[Aib]QGT[αMeF]TSD[Bip]K(βDGlcA(1-OC18H37))-NH2; N-terminus assumed) | > 1000 |  | 
2 | CCCCCCCCCCCCCCCCCCO[C@@H]1O[C@H](C(=O)NCCCC[C@H](NC(=O)[C@@H](NC(=O)[C@H](Cc2ccccc2)NC(=O)[C@H](CCC(=O)O)NC(=O)[C@@H]2CCCCNC(=O)CC[C@H](NC(=O)[C@H](CC(=O)O)NC(=O)[C@H](CC(C)C)NC(=O)[C@H](Cc3ccc(O)cc3)NC(=O)[C@H](CCCCN)NC(=O)[C@H](CO)NC(=O)[C@H](Cc3ccc(O)cc3)NC(=O)[C@H](CC(=O)O)NC(=O)[C@H](CO)NC(=O)[C@@H](NC(=O)[C@H](Cc3ccccc3)NC(=O)[C@@H](NC(=O)CNC(=O)[C@H](CCC(N)=O)NC(=O)C(C)(C)NC(=O)[C@@H](N)Cc3c[nH]cn3)[C@@H](C)O)[C@@H](C)O)C(=O)N[C@@H](CCC(N)=O)C(=O)N[C@@H](C)C(=O)N[C@@H](C)C(=O)N2)[C@@H](C)CC)C(=O)N[C@@H](Cc2c[nH]c3ccccc23)C(=O)N[C@@H](CC(C)C)C(=O)N[C@@H](CC(C)C)C(=O)N[C@@H](CCC(N)=O)C(=O)N[C@H](C(N)=O)[C@@H](C)O)[C@@H](O)[C@H](O)[C@H]1O [EU-A996] |  | 0.05 | 
3 | CCCCCCCCCCCCO[C@@H]1O[C@H](C(=O)O)[C@@H](O[C@H]2O[C@H](C(=O)NCCCC[C@H](NC(=O)[C@@H](NC(=O)[C@H](Cc3ccccc3)NC(=O)[C@H](CCC(=O)O)NC(=O)[C@@H]3CCCCNC(=O)CC[C@H](NC(=O)[C@H](CC(=O)O)NC(=O)[C@H](CC(C)C)NC(=O)[C@H](Cc4ccc(O)cc4)NC(=O)[C@H](CCCCN)NC(=O)[C@H](CO)NC(=O)[C@H](Cc4ccc(O)cc4)NC(=O)[C@H](CC(=O)O)NC(=O)[C@H](CO)NC(=O)[C@@H](NC(=O)[C@H](Cc4ccccc4)NC(=O)[C@@H](NC(=O)CNC(=O)[C@H](CCC(N)=O)NC(=O)C(C)(C)NC(=O)[C@@H](N)Cc4c[nH]cn4)[C@@H](C)O)[C@@H](C)O)C(=O)N[C@@H](CCC(N)=O)C(=O)N[C@@H](C)C(=O)N[C@@H](C)C(=O)N3)[C@@H](C)CC)C(=O)N[C@@H](Cc3c[nH]c4ccccc34)C(=O)N[C@@H](CC(C)C)C(=O)N[C@@H](CC(C)C)C(=O)N[C@@H](CCC(N)=O)C(=O)N[C@H](C(N)=O)[C@@H](C)O)[C@@H](O)[C@H](O)[C@H]2O)[C@H](O)[C@H]1O [EU-A999] |  | 0.05 | 
4 | CCCCCCCCCCCCCCCCO[C@@H]1O[C@H](CO[C@H]2O[C@H](C(=O)NCCCC[C@H](NC(=O)[C@@H](NC(=O)[C@H](Cc3ccccc3)NC(=O)[C@H](CCC(=O)O)NC(=O)[C@@H]3CCCCNC(=O)CC[C@H](NC(=O)[C@H](CC(=O)O)NC(=O)[C@H](CC(C)C)NC(=O)[C@H](Cc4ccc(O)cc4)NC(=O)[C@H](CCCCN)NC(=O)[C@H](CO)NC(=O)[C@H](Cc4ccc(O)cc4)NC(=O)[C@H](CC(=O)O)NC(=O)[C@H](CO)NC(=O)[C@@H](NC(=O)[C@H](Cc4ccccc4)NC(=O)[C@@H](NC(=O)CNC(=O)[C@H](CCC(N)=O)NC(=O)C(C)(C)NC(=O)[C@@H](N)Cc4c[nH]cn4)[C@@H](C)O)[C@@H](C)O)C(=O)N[C@@H](CCC(N)=O)C(=O)N[C@@H](C)C(=O)N[C@@H](C)C(=O)N3)[C@@H](C)CC)C(=O)N[C@@H](Cc3c[nH]c4ccccc34)C(=O)N[C@@H](CC(C)C)C(=O)N[C@@H](CC(C)C)C(=O)N[C@@H](CCC(N)=O)C(=O)N[C@H](C(N)=O)[C@@H](C)O)[C@H](O)[C@H](O)[C@H]2O)[C@@H](O)[C@H](O)[C@H]1O [EU-A1025] |  | 0.008 | 0.24
5 | CCCCCCCCCCCCCCCCO[C@H]1O[C@H](CO[C@H]2O[C@H](C(=O)NCCCC[C@H](NC(=O)[C@@H](NC(=O)[C@H](Cc3ccccc3)NC(=O)[C@H](CCC(=O)O)NC(=O)[C@@H]3CCCCNC(=O)CC[C@H](NC(=O)[C@H](CC(=O)O)NC(=O)[C@H](CC(C)C)NC(=O)[C@H](Cc4ccc(O)cc4)NC(=O)[C@H](CCCCN)NC(=O)[C@H](CO)NC(=O)[C@H](Cc4ccc(O)cc4)NC(=O)[C@H](CC(=O)O)NC(=O)[C@H](CO)NC(=O)[C@@H](NC(=O)[C@H](Cc4ccccc4)NC(=O)[C@@H](NC(=O)CNC(=O)[C@H](CCC(N)=O)NC(=O)C(C)(C)NC(=O)[C@@H](N)Cc4c[nH]cn4)[C@@H](C)O)[C@@H](C)O)C(=O)N[C@@H](CCC(N)=O)C(=O)N[C@@H](C)C(=O)N[C@@H](C)C(=O)N3)[C@@H](C)CC)C(=O)N[C@@H](Cc3c[nH]c4ccccc34)C(=O)N[C@@H](CC(C)C)C(=O)N[C@@H](CC(C)C)C(=O)N[C@@H](CCC(N)=O)C(=O)N[C@H](C(N)=O)[C@@H](C)O)[C@H](O)[C@H](O)[C@H]2O)[C@@H](O)[C@H](O)[C@H]1O [EU-A1173] |  | 0.021 | 0.463
6 | CCCCCCCCCCCCO[C@@H]1O[C@H](CO[C@H]2O[C@H](C(=O)NCCCC[C@H](NC(=O)[C@@H](NC(=O)[C@H](Cc3ccccc3)NC(=O)[C@H](CCC(=O)O)NC(=O)[C@@H]3CCCCNC(=O)CC[C@H](NC(=O)[C@H](CC(=O)O)NC(=O)[C@H](CC(C)C)NC(=O)[C@H](Cc4ccc(O)cc4)NC(=O)[C@H](CCCCN)NC(=O)[C@H](CO)NC(=O)[C@H](Cc4ccc(O)cc4)NC(=O)[C@H](CC(=O)O)NC(=O)[C@H](CO)NC(=O)[C@@H](NC(=O)[C@H](Cc4ccccc4)NC(=O)[C@@H](NC(=O)CNC(=O)[C@H](CCC(N)=O)NC(=O)C(C)(C)NC(=O)[C@@H](N)Cc4c[nH]cn4)[C@@H](C)O)[C@@H](C)O)C(=O)N[C@@H](CCC(N)=O)C(=O)N[C@@H](C)C(=O)N[C@@H](C)C(=O)N3)[C@@H](C)CC)C(=O)N[C@@H](Cc3c[nH]c4ccccc34)C(=O)N[C@@H](CC(C)C)C(=O)N[C@@H](CC(C)C)C(=O)N[C@@H](CCC(N)=O)C(=O)N[C@H](C(=O)O)[C@@H](C)O)[C@H](O)[C@H](O)[C@H]2O)[C@@H](O)[C@H](O)[C@H]1O [EU-A1576] |  | 0.032 | 0.07
7 | CCCCCCCCCCCCCCO[C@@H]1O[C@H](CO[C@H]2O[C@H](C(=O)NCCCC[C@H](NC(=O)[C@@H](NC(=O)[C@H](Cc3ccccc3)NC(=O)[C@H](CCC(=O)O)NC(=O)[C@@H]3CCCCNC(=O)CC[C@H](NC(=O)[C@H](CC(=O)O)NC(=O)[C@H](CC(C)C)NC(=O)[C@H](Cc4ccc(O)cc4)NC(=O)[C@H](CCCCN)NC(=O)[C@H](CO)NC(=O)[C@H](Cc4ccc(O)cc4)NC(=O)[C@H](CC(=O)O)NC(=O)[C@H](CO)NC(=O)[C@@H](NC(=O)[C@H](Cc4ccccc4)NC(=O)[C@@H](NC(=O)CNC(=O)[C@H](CCC(N)=O)NC(=O)C(C)(C)NC(=O)[C@@H](N)Cc4c[nH]cn4)[C@@H](C)O)[C@@H](C)O)C(=O)N[C@@H](CCC(N)=O)C(=O)N[C@@H](C)C(=O)N[C@@H](C)C(=O)N3)[C@@H](C)CC)C(=O)N[C@@H](Cc3c[nH]c4ccccc34)C(=O)N[C@@H](CC(C)C)C(=O)N[C@@H](CC(C)C)C(=O)N[C@@H](CCC(N)=O)C(=O)N[C@H](C(=O)O)[C@@H](C)O)[C@H](O)[C@H](O)[C@H]2O)[C@@H](O)[C@H](O)[C@H]1O [EU-A1577] |  | 0.007 | 0.069
8 | CCCCCCCCCCCCCCCCO[C@@H]1O[C@H](CO[C@H]2O[C@H](C(=O)NCCCC[C@H](NC(=O)[C@@H](NC(=O)[C@H](Cc3ccccc3)NC(=O)[C@H](CCC(=O)O)NC(=O)[C@@H]3CCCCNC(=O)CC[C@H](NC(=O)[C@H](CC(=O)O)NC(=O)[C@H](CC(C)C)NC(=O)[C@H](Cc4ccc(O)cc4)NC(=O)[C@H](CCCCN)NC(=O)[C@H](CO)NC(=O)[C@H](Cc4ccc(O)cc4)NC(=O)[C@H](CC(=O)O)NC(=O)[C@H](CO)NC(=O)[C@@H](NC(=O)[C@H](Cc4ccccc4)NC(=O)[C@@H](NC(=O)CNC(=O)[C@H](CCC(N)=O)NC(=O)C(C)(C)NC(=O)[C@@H](N)Cc4c[nH]cn4)[C@@H](C)O)[C@@H](C)O)C(=O)N[C@@H](CCC(N)=O)C(=O)N[C@@H](C)C(=O)N[C@@H](C)C(=O)N3)[C@@H](C)CC)C(=O)N[C@@H](Cc3c[nH]c4ccccc34)C(=O)N[C@@H](CC(C)C)C(=O)N[C@@H](CC(C)C)C(=O)N[C@@H](CCC(N)=O)C(=O)N[C@H](C(=O)O)[C@@H](C)O)[C@H](O)[C@H](O)[C@H]2O)[C@@H](O)[C@H](O)[C@H]1O [EU-A1578] |  | 0.008 | 0.355
9 | CCCCCCCCCCCCO[C@@H]1O[C@H](CO[C@H]2O[C@H](C(=O)NCCCC[C@H](NC(=O)[C@@H](NC(=O)[C@H](Cc3ccccc3)NC(=O)[C@H](CCC(=O)O)NC(=O)[C@@H]3CCCCNC(=O)CC[C@H](NC(=O)[C@H](CC(=O)O)NC(=O)[C@H](CC(C)C)NC(=O)[C@H](Cc4ccc(O)cc4)NC(=O)[C@H](CCCCN)NC(=O)[C@H](CO)NC(=O)[C@H](Cc4ccc(O)cc4)NC(=O)[C@H](CC(=O)O)NC(=O)[C@H](CO)NC(=O)[C@@H](NC(=O)[C@H](Cc4ccccc4)NC(=O)[C@@H](NC(=O)CNC(=O)[C@H](CCC(N)=O)NC(=O)C(C)(C)NC(=O)[C@@H](N)Cc4c[nH]cn4)[C@@H](C)O)[C@@H](C)O)C(=O)N[C@@H](CCC(=O)O)C(=O)N[C@@H](C)C(=O)N[C@@H](C)C(=O)N3)[C@@H](C)CC)C(=O)N[C@@H](Cc3c[nH]c4ccccc34)C(=O)N[C@@H](CC(C)C)C(=O)N[C@@H](CC(C)C)C(=O)N[C@@H](CCC(N)=O)C(=O)N[C@H](C(=O)O)[C@@H](C)O)[C@H](O)[C@H](O)[C@H]2O)[C@@H](O)[C@H](O)[C@H]1O [EU-A1581] (H-H[Aib]QGTFTSDYSKYLDEEAAKEFIK(Melibiouronoyl(1β-O-dodecyl))WLLQT-OH; lactam 16-20; N-terminus assumed) |  | 0.086 | 1.03
